In ChEMBL document CHEMBL3769406, “A phenotypic drug discovery study on thienodiazepine derivatives as inhibitors of T cell proliferation induced by CD28 co-stimulation leads to the discovery of a first bromodomain inhibitor” (Bioorg Med Chem Lett, 2016):
Calls of active or inactive are those of the source. The calls are words filed in the database; no cut-off is given here.

How the values were obtained:
[1] = Immunosuppressive activity in BALB/c mouse splenic T cells assessed as inhibition of PMA/CD28 induced cell proliferation after 24 hrs by [methyl-3H]thymidine incorporation assay; assay type: functional, cell-based
[2] = molecular target: Bromodomain-containing protein 2 (Homo sapiens) (UniProt P25440); assay: (§1) Competitive inhibition of BRD2 in PMA /ionomycin activated human Jurkat cell lysate in presence of (S)-4-{3'-Cyano-4'-[3-(3-{2-[5-((3aR,6S,6aS)-2-oxo-hexahydro-thieno[3,4-d]imidazol-6-yl)-pentanoylamino]-ethyldisulfanyl}-propionylamino)-propoxy]-biphenyl-4-yl}-2,3,9-trimethyl-6H-1-thia-5,7,8,9a-tetraaza-cyclopenta[e]azulene-6-yl]acetic acid ethyl ester/avidin-resin by pull down assay; assay type: cell-based
[3] = molecular target: Bromodomain-containing protein 3 (Homo sapiens) (UniProt Q15059); assay: as §1, with “BRD3” for “BRD2”; assay type: cell-based
[4] = molecular target: T1, Bromodomain-containing protein 4 (Homo sapiens, UniProt O60885); assay: as §1, with “BRD4” for “BRD2”; assay type: cell-based
[5] = Cytotoxicity against mouse LLC cells after 72 hrs by WST-8 assay; assay type: functional; conditions: Lewis lung carcinoma
Mus musculus = assay: Immunosuppressive activity in collagen-induced DBA/1J mouse arthritis model at 0.3 to 1 mg/kg, po administered for […] of immunization with bovine type II collagen measured at 21 to 42 days after primary immunization; assay type: functional, organism-based
[6] = Cytotoxicity against human U937 cells after 72 hrs by WST-8 assay; assay type: functional; conditions: U-937, 72 h
[7] = Cytotoxicity against human COLO205 cells after 72 hrs by WST-8 assay; assay type: functional; conditions: COLO 205, 72 h
[8] = Cytotoxicity against human RPMI8226 cells after 72 hrs by WST-8 assay; assay type: functional; conditions: RPMI-8226, 72 h
[9] = Antitumor activity against human HL60 cells xenografted in nude mouse assessed as inhibition of relative tumor growth at 10 mg/kg, po bid administered for 14 days; assay type: functional; conditions: HL-60, po, 336 h, read-out: TGI
[10] = Cytotoxicity against human KIM1 cells after 72 hrs by WST-8 assay; assay type: functional; conditions: KIM1, 72 h
Daudi = assay: Cytotoxicity against human Daudi cells after 72 hrs by WST-8 assay; assay type: functional
LNCaP = assay: Cytotoxicity against human LNCAP cells after 72 hrs by WST-8 assay; assay type: functional
[11] = molecular target: Bromodomain-containing protein 2 (Homo sapiens) (UniProt P25440); assay: Inhibition of Flag-tagged BRD2 (unknown origin)-biotinylated AcH4 (Lys5, 8, 12, 16) histone peptide binding expressed in CHO cells after 60 mins by TR-FRET assay; assay type: cell-based
B16 = assay: Cytotoxicity against mouse B16 cells after 72 hrs by WST-8 assay; assay type: functional; conditions: B16, 72 h
A549 = assay: Cytotoxicity against human A549 cells after 72 hrs by WST-8 assay; assay type: functional; conditions: A549, 72 h
[12] = Antitumor activity against human HL60 cells xenografted in nude mouse assessed as inhibition of relative tumor growth at 10 mg/kg, po qd administered for 14 days; assay type: functional; conditions: HL-60, po, 336 h, read-out: TGI
[13] = Cytotoxicity against human MV411 cells after 72 hrs by WST-8 assay; assay type: functional; conditions: MV4-11, 72 h
[14] = molecular target: T1, Bromodomain-containing protein 4; assay: Inhibition of Flag-tagged BRD4 (unknown origin)-biotinylated AcH4 (Lys5, 8, 12, 16) histone peptide binding expressed in CHO cells after 60 mins by TR-FRET assay; assay type: cell-based
[15] = Cytotoxicity against human SKOV3 cells after 72 hrs by WST-8 assay; assay type: functional; conditions: SK-OV-3, 72 h
[16] = Cytotoxicity against human LN18 cells after 72 hrs by WST-8 assay; assay type: functional; conditions: LN-18, 72 h
[17] = Antitumor activity against human HL60 cells xenografted in nude mouse assessed as inhibition of relative tumor growth at 30 mg/kg, po qd administered for 14 days; assay type: functional; conditions: HL-60, po, 336 h, read-out: TGI
[18] = Cytotoxicity against human U87MG cells after 72 hrs by WST-8 assay; assay type: functional, U-87MG ATCC; conditions: U-87 MG
A2780 = assay: Cytotoxicity against human A2780 cells after 72 hrs by WST-8 assay; assay type: functional; conditions: A2780, 72 h
[19] = Cytotoxicity against human HL60 cells after 72 hrs by WST-8 assay; assay type: functional; conditions: HL-60, 72 h
[20] = Cytotoxicity against human EBC1 cells after 72 hrs by WST-8 assay; assay type: functional; conditions: EBC-1, 72 h
[21] = molecular target: Bromodomain-containing protein 3 (Homo sapiens) (UniProt Q15059); assay: Inhibition of Flag-tagged BRD3 (unknown origin)-biotinylated AcH4 (Lys5, 8, 12, 16) histone peptide binding expressed in CHO cells after 60 mins by TR-FRET assay; assay type: cell-based
[22] = Cytotoxicity against mouse M1 cells after 72 hrs by WST-8 assay; assay type: functional; conditions: M1, 72 h
HeLa = assay: Cytotoxicity against human HeLa cells after 72 hrs by WST-8 assay; assay type: functional

Chain of Bromodomain-containing protein 2 (Homo sapiens) (P25440 whole entry, looked up): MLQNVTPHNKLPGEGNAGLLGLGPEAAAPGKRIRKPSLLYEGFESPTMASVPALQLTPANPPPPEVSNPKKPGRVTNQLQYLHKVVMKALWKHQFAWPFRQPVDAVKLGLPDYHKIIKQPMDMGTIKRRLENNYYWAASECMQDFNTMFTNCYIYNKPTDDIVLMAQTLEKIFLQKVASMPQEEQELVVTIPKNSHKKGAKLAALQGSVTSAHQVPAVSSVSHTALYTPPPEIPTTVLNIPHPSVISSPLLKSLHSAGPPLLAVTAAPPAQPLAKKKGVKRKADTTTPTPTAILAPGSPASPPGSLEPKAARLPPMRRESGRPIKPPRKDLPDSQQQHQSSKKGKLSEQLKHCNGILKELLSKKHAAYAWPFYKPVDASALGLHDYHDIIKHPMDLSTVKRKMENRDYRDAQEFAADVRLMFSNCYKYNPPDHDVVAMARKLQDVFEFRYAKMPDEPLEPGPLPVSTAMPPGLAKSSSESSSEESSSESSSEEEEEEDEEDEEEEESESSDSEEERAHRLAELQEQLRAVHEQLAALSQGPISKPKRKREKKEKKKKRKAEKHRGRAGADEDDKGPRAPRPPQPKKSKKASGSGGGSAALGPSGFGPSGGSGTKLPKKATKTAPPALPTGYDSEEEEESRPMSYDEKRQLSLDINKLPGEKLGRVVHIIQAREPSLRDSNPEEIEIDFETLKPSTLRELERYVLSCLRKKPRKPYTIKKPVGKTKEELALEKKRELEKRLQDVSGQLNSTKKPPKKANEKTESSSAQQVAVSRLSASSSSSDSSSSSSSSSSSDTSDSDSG
Chain of Bromodomain-containing protein 3 (Homo sapiens) (Q15059 2-726 limits assumed): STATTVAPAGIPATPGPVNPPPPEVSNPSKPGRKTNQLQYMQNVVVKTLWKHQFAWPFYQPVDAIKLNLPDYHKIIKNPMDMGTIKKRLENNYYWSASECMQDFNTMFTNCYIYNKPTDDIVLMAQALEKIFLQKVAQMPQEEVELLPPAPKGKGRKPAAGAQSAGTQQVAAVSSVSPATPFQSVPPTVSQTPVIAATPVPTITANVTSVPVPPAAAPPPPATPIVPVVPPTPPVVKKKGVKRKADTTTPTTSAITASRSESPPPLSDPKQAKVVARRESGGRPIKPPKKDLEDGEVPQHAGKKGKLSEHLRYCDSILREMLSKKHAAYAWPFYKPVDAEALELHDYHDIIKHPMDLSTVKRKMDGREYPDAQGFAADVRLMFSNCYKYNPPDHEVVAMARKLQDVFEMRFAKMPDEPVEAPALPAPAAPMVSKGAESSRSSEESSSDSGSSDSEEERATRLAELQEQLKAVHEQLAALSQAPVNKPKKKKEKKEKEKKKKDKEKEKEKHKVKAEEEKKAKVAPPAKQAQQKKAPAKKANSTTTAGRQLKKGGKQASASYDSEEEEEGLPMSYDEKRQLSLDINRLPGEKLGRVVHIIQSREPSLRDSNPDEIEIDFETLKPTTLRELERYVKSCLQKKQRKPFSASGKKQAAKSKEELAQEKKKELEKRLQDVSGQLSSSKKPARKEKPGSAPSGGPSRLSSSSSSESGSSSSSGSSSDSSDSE

Compound: COC(=O)C[C@@H]1N=C(c2ccc(Cl)cc2)c2c(sc(C)c2C)-n2c(C)nnc21
- IC50 [1]: 0.038 µM

Compound: Cc1sc2c(c1C)C(c1ccc(Cl)cc1)=N[C@@H](CC(=O)OC(C)(C)C)c1nnc(C)n1-2
- IC50 [1]: 0.11 µM

Compound: COC(=O)C[C@@H]1N=C(c2ccc(-c3cccc(OC)c3)cc2)c2c(sc(C)c2C)-n2c(C)nnc21
- IC50 [1]: 0.036 µM

Compound: Cc1sc2c(c1C)C(c1ccc(Cl)cc1)=NC(Cc1ccccn1)c1nnc(C)n1-2 (racemic)
- IC50 [1]: 0.33 µM

Compound: COC(=O)C[C@H]1N=C(c2ccc(Cl)cc2)c2c(sc(C)c2C)-n2c(C)nnc21
- IC50 [1]: > 10 µM

Compound: COC(=O)C[C@@H]1N=C(c2ccc(-c3ccc(O)c(C#N)c3)cc2)c2c(sc(C)c2C)-n2c(C)nnc21
- IC50 [1]: 0.0025 µM

Compound: COC(=O)C[C@@H]1N=C(c2ccc(-c3cccc(OC(F)(F)F)c3)cc2)c2c(sc(C)c2C)-n2c(C)nnc21
- IC50 [1]: 0.16 µM

Compound: Cc1sc2c(c1C)C(c1ccc(Cl)cc1)=NCc1nnc(C)n1-2
- IC50 [1]: 2.5 µM

Compound: COC(=O)C[C@@H]1N=C(c2ccc(-c3cccc(NC(C)=O)c3)cc2)c2c(sc(C)c2C)-n2c(C)nnc21
- IC50 [1]: 0.027 µM

Compound: CCC1N=C(c2ccc(Cl)cc2)c2c(sc(C)c2C)-n2c(C)nnc21 (racemic)
- IC50 [1]: 0.34 µM

Compound: CCCOC(=O)C[C@@H]1N=C(c2ccc(Cl)cc2)c2c(sc(C)c2C)-n2c(C)nnc21
- IC50 [1]: 0.03 µM

Compound: COC(=O)C[C@@H]1N=C(c2ccc(-c3ccc(C#N)cc3)cc2)c2c(sc(C)c2C)-n2c(C)nnc21
- IC50 [1]: 0.033 µM

Compound: Cc1sc2c(c1C)C(c1ccc(Cl)cc1)=N[C@@H](CC(=O)OC(C)C)c1nnc(C)n1-2
- IC50 [1]: 0.044 µM

Compound: Cc1sc2c(c1C)C(c1ccc(Cl)cc1)=N[C@@H](CC(=O)OCc1ccccc1)c1nnc(C)n1-2
- IC50 [1]: 0.036 µM

Compound: Cc1sc2c(c1C)C(c1ccc(Cl)cc1)=NC(Cc1ccccc1)c1nnc(C)n1-2 (racemic)
- IC50 [1]: 0.5 µM

Compound: COC(=O)C[C@@H]1N=C(c2ccc(-c3cccc(C(C)=O)c3)cc2)c2c(sc(C)c2C)-n2c(C)nnc21
- IC50 [1]: 0.015 µM

Compound: COC(=O)C[C@@H]1N=C(c2ccc(-c3ccccc3OC)cc2)c2c(sc(C)c2C)-n2c(C)nnc21
- IC50 [1]: 0.19 µM

Compound: COC(=O)C[C@@H]1N=C(c2ccc(-c3ccccc3C#N)cc2)c2c(sc(C)c2C)-n2c(C)nnc21
- IC50 [1]: 0.18 µM

Compound: Cc1sc2c(c1C)C(c1ccc(Cl)cc1)=NC(Cc1ccncc1)c1nnc(C)n1-2 (racemic)
- IC50 [1]: 0.24 µM

Compound: COCC[C@@H]1N=C(c2ccc(Cl)cc2)c2c(sc(C)c2C)-n2c(C)nnc21
- IC50 [1]: 0.39 µM

Compound: Cc1sc2c(c1C)C(c1ccc(Cl)cc1)=NC(Cc1cccnc1)c1nnc(C)n1-2 (racemic)
- IC50 [1]: 0.4 µM

Compound: COC(=O)CC1N=C(c2ccc(-c3ccccc3)cc2)c2c(sc(C)c2C)-n2c(C)nnc21 (racemic)
- IC50 [1]: 0.22 µM

Compound: Cc1sc2c(c1C)C(c1ccc(Cl)cc1)=N[C@@H](CCC#N)c1nnc(C)n1-2
- IC50 [1]: 0.1 µM

Compound: Cc1sc2c(c1C)C(c1ccc(Cl)cc1)=NC(C)c1nnc(C)n1-2 (racemic)
- IC50 [1]: 0.39 µM

Compound: COC(=O)C[C@@H]1N=C(c2ccc(-c3cccc(S(C)(=O)=O)c3)cc2)c2c(sc(C)c2C)-n2c(C)nnc21
- IC50 [1]: 0.0098 µM

Compound: COC(=O)C[C@H]1N=C(c2ccc(-c3cccc(C#N)c3)cc2)c2c(sc(C)c2C)-n2c(C)nnc21
- inhibition [2]: inactive
- inhibition [3]: inactive
- inhibition [4]: inactive

Compound: COC(=O)C[C@@H]1N=C(c2ccc(-c3cccc(C#N)c3)cc2)c2c(sc(C)c2C)-n2c(C)nnc21
- GI50 [5]: 1.5 µM
- inhibition [2]: Dose-dependent effect
- Activity (Mus musculus): Active
- GI50 [6]: 0.829 µM
- GI50 [7]: 0.484 µM
- GI50 [8]: 0.069 µM
- inhibition in vivo at 10 mg/kg [9]: 80%
- GI50 [10]: 0.104 µM
- GI50 (Daudi): 0.067 µM
- GI50 (LNCaP): 0.201 µM
- inhibition [11]: Active
- inhibition [3]: Dose-dependent effect
- GI50 (B16): 0.08 µM
- GI50 (A549): > 10 µM
- inhibition in vivo at 10 mg/kg [12]: 43%
- inhibition [4]: Dose-dependent effect
- GI50 [13]: 0.019 µM
- IC50 [14]: 0.0339 µM
- GI50 [15]: 5.27 µM
- GI50 [16]: 0.207 µM
- inhibition in vivo at 30 mg/kg [17]: 65%
- GI50 [18]: > 10 µM
- GI50 (A2780): 0.13 µM
- GI50 [19]: 0.007 µM
- GI50 [20]: 0.207 µM
- IC50 [1]: 0.026 µM
- inhibition [21]: Active
- GI50 [22]: 0.003 µM
- GI50 (HeLa): 0.274 µM

Compound: CCOC(=O)C[C@@H]1N=C(c2ccc(Cl)cc2)c2c(sc(C)c2C)-n2c(C)nnc21
- IC50 [1]: 0.012 µM

Compound: COC(=O)C[C@@H]1N=C(c2ccc(-c3ccc(OC)cc3)cc2)c2c(sc(C)c2C)-n2c(C)nnc21
- IC50 [1]: 0.053 µM

Compound: Cc1sc2c(c1C)C(c1ccc(Cl)cc1)=NC(CCc1ccccc1)c1nnc(C)n1-2 (racemic)
- IC50 [1]: 2.68 µM

Compound: Cc1sc2c(c1C)C(c1ccc(Cl)cc1)=N[C@@H](CCO)c1nnc(C)n1-2
- IC50 [1]: 0.58 µM

Compound: COC(=O)C[C@@H]1N=C(c2ccc(-c3cccc(O)c3)cc2)c2c(sc(C)c2C)-n2c(C)nnc21
- IC50 [1]: 0.032 µM
